The subject of one series is MCF7 and MCF7/Dox cells. The series can be described thus: Mitochondrial localization in MCF7 and MCF7/Dox cells. The series is classed as cell-based, human. From the text:
Mito-tracker (green) was utilized to show the mitochondria;

A short description of series [1]: Stability on incubation in PBS. The class given is physicochemical. The following applies: PBS pH 7.4, 37° C., 24 hr. The procedure:
To gain further insight into the preliminary stability and activation of conjugates containing DCA, Dox, and a TPP cation targeting entity, both the target conjugate C1 and the control system C3 (an analog of C1 lacking the chloromethyl groups present in DCA; cf. FIG. 1) were prepared. These two conjugates were obtained in excellent yield, as shown in Scheme S1. […] This release was accompanied by a strong emission band at 560 nm corresponding to free Dox (FIG. 2A and FIG. 2B). Further support for the release of free Dox under these conditions came from time-dependent fluorescence experiments, HPLC, and liquid chromatography-mass spectrometry (FIG. 2B and FIG. 2C, and FIG. 7). […] To test the reaction of C1 with various other bioanalytes, the fluorescence response in the presence of various amino acids, enzymes, and biomolecules was recorded.

Another series deals with MCF7 cells. The series can be described thus: Colony formation assay. The series is classed as cell-based, human. The following applies: 10 days. The procedure:
(§1) Cells were seeded in 24 well plates at 2×10^5 cells per well and were allowed to adhere for at least 24 h, growth medium was replaced with medium containing C1 or its analogues at the indicated concentrations and times, and cell viability was assessed via the WST-1 assay (Roche Diagnostics, Laval, QC, Canada). For the colony formation assay, cells were seeded in 6-well plates. After 24 h, cells were maintained in the presence of each probe or vehicle dimethyl sulfoxide (DMSO) for 10 days. Colonies were fixed with methanol for 10 min and stained with 0.05% crystal violet in 20% ethanol.

Series [2] can be described thus: Cell fractionation assay, mitochondria-to-nucleus trafficking. The following applies: after treatment with C1. The class given is cell-based. The procedure:
(§2) Fluorescence intensities were measured with SpectraMAX 13. Data represent means±SD. **p<0.01. […] Data represent means±SD. **[…]. […] Data represent the mean±SD (n=3 experimental replicates). *p<0.05, **p<0.01. […] MCF7/Dox cells were treated with C1 or C3 as indicated, and the cytosolic (C) and mitochondrial (M) fractions were subjected to immunoblot assay. COX-IV and tubulin were used as markers for the mitochondria and cytosol fractions, respectively.
Separation of cytosolic and mitochondrial fractions was performed using the Mitochondria Isolation Kit (Thermo Scientific, USA). Briefly, the cells were washed with cold PBS and lysed by 5-cycle freeze-thawing in Mitochondria Isolation Reagent A buffer, containing 10 mM phenylmethylsulfonyl fluoride (PMSF). After incubation on ice for 10 min and the addition of Mitochondria Isolation Reagent B buffer, the lysates were centrifuged at 700×g for 10 min following inverting by treating with Mitochondria Isolation Reagent C buffer. The supernatant was transferred to a new tube, centrifuged at 12 000×g for 15 min at 4° C., and collected as the cytosolic fraction. After adding […] of Mitochondria Isolation Reagent C, the pellet was centrifuged at 12 000×g for 5 min and collected as the mitochondrial fraction.

The test system of series [3] is MCF7/Dox cells. Briefly: Assessment of mitochondrial membrane potential (CLSM). The class given is cell-based, human. The following applies: 5 μM, 48 h. On the procedure: To assess the mitochondrial membrane potential, MCF-7/Dox cells (5×10^3 cells) were seeded in glass-bottomed dishes and treated with 5 μM compound C1, C3, DCA, and/or doxorubicin for 48 h. After incubation, the cells were stained with 2 ml of a PBS solution containing 20 μM Mitoview™ 633 (Biotium, USA) and 100 nM Hoechst® 33342 (ThermoFisher, USA) for 30 min at 37° C. with 5% CO2. Fluorescence was detected using a Zeiss LSM 700 confocal laser scanning microscope (Carl Zeiss).

In a further series the test system is HepG2 cells. Briefly: WST cell viability assay. The series is classed as cell-based, human. On the procedure: (§3) HepG2 cells treated with each compound (5 μM, 24 hr) were co-stained with the mitochondrial marker MitoTracker (green). Boxed regions show co-localization of the test compounds and probe within the mitochondria. […] Experiments were carried out in triplicate and the data shown represent means±SD. **p<0.01. […] HepG2 cells were incubated with BNPP (100 μM) for 2 hr prior to C1 treatment. **p<0.01. […] Cleaved caspase-3 and PARP-1 levels were examined to assess apoptosis induction. C, cleaved.
as §1

Another series can be described thus: WST cell viability assay. As to conditions: human; HepG2 cells, WST assay; read-out: IC50 (cytotoxicity). The series is classed as cell-based, human. On the procedure:
as §3, §1

Series [4] relates to MCF7/Dox cells. The series can be described thus: Colony formation assay. The class given is cell-based, human. The following applies: 10 days. The procedure: as §2, §1
Another series has as its system carboxylesterase. Briefly: Carboxylesterase activation, fluorescence response and Dox release. The series is classed as biochemical. The procedure: The change in fluorescence intensity is directly related to active Dox release from C1.
FIG. 8 is a bar diagram representing the fluorescence intensity of C1 (5 μM) recorded at 570 nm after 4 h incubation in the presence or absence of carboxylesterase (1 U/ml), and various biological analytes, including amino acids (100 μM), thiols (10 mM, each), and reactive oxygen species (ROS) (200 μM, each) (Excitation at 470 nm). 1) C1 only, 2) L-proline, 3) L-ascorbic acid, 4) L-glutamic acid, 5) nicotinamide adenine dinucleotide (NADH), 6) pepsin, 7) acetylcholinesterase (AChE), 8) butyrylcholinesterase (BChE), 9) L-glutathione, 10) H2O2, 11) hypochlorite ion (OCl^−) 12) C1+esterase;
The maximal fluorescence intensity was recorded after 4 h. […] Note: The change in fluorescence intensity is considered to be proportional to the quantity of active Dox release from […]. […]
To gain further insight into the preliminary stability and activation of conjugates containing DCA, Dox, and a TPP cation targeting entity, both the target conjugate C1 and the control system C3 (an analog of C1 lacking the chloromethyl groups present in DCA; cf. FIG. 1) were prepared. […] Further support for the release of free Dox under these conditions came from time-dependent fluorescence experiments, HPLC, and liquid chromatography-mass spectrometry (FIG. 2B and FIG. 2C, and FIG. 7). […]

The subject of a further series is MCF7 and MCF7/Dox tumors. The series can be described thus: In vivo and ex vivo fluorescent imaging. The following applies: mice bearing MCF7 and MCF7/Dox tumors.

Procedure for MCF7 and MCF7/Dox tumors: To assess tumor target specificity and the organ distribution of C1 in vivo and ex vivo, MCF7 and MCF7/Dox cells were injected subcutaneously into mice. When tumor growth reached a detectable size, the mice were treated with C1 (15 mg/kg/d), doxorubicin (2 mg/Kg/d)+DCA (50 mg/Kg/d), or vehicle (DMSO) by i.v. injection once every 4 days for 30 days. After 15 days of treatment, the animals were euthanized via CO2 asphyxiation. The xenograft tumors were excised and photographed. In vivo fluorescence images of the mice were recorded and quantified using a Maestro2 instrument (excitation and emission wavelengths: 500 and 650 nm, respectively). The fluorescence images and auto-fluorescence were then deconvoluted using the software provided with the instrument (Maestro software ver.2.4, CRi, Woburn, Mass., USA) using the multiexcitation spectral analysis function.

Regarding `COc1cccc2c1C(=O)c1c(O)c3c(c(O)c1C2=O)C[C@@](O)(C(=O)CO)C[C@@H]3OC1C[C@H](NC(=O)OC(Cc2cn(CCCCCC[P+](c3ccccc3)(c3ccccc3)c3ccccc3)nn2)c2ccc(NC(=O)C(Cl)Cl)cc2)[C@H](O)[C@H](C)O1.[Br-]` (stereo partly drawn) [C1], the mitochondrial localization result with MCF7 and MCF7/Dox cells is “exhibited mitochondrial localization in both MCF7 and MCF7/Dox cells”. Besides, in series [1], the “decomposition upon incubation in PBS” value is on record as “no decomposition was observed”. Also, the colony-forming ability result with MCF7 cells and with MCF7/Dox cells [4] was “strong inhibitory effect” in each case. The “time for released Dox to translocate to the nucleus” value in [2] is recorded as “approximately 2 hr”. Besides, in the series with MCF7/Dox cells [3], the “decrease in mitochondrial membrane potential Δψm” value is reported as “ca. 96%”. The “effect of BNPP pretreatment on C1-driven decrease in cell viability” value with HepG2 cells (HepG2, BNPP 100 μM 2 hr before treatment) is given as “strongly attenuated”. For the same compound, the “cell death in cell-survival assays” value in the series with HepG2 cells (compared with C3-C6) was “greater cell death in a dose-dependent manner”. In the series “WST cell viability assay”, the IC50 (usually the point on the concentration scale where inhibition reaches its midpoint) turned out to be 22.1 ± 0.325 µM. The “fluorescence response to various amino acids, enzymes and biomolecules versus esterase” value in the series with carboxylesterase (590 nm emission, 4 h incubation) is listed as “large fluorescence enhancements in the 590 nm emission feature were observed upon treatment with the esterase but not in its absence”. Moreover, in the series with carboxylesterase (carboxylesterase 1 U/mL, PBS, 37° C.), the “response to carboxylesterase (bond scission, Dox release)” value was “scission of the aniline-amide bond and release of Dox”. Further, the “tumor specificity of Dox accumulation (fluorescence imaging of mice and dissected organs)” value in the series on MCF7 and MCF7/Dox tumors is listed as “highly tumor-specific accumulation of Dox”.

For the origin of these results see US11241501B2, “Anticancer prodrug for overcoming drug resistance” (Korea University Research and Business Foundation, priority 2018, dated 2022).
